Consider 5 compounds from patent US6498158B1, “Il-5 inhibiting 6-azauracil derivatives” (Janssen Pharmaceutica N.V., priority 1998, dated 2002).

Molecules are shown by their SMILES.

One series has as its system IL-5 production. Kind of series: In vitro inhibition of IL-5 production in human blood. The class given is cell-based. To be noted: test dose of 1×10^−6 M, phytohemagglutinin-stimulated human whole blood, ELISA; for inhibition at 1 µM: Homo sapiens, 48 h, read-out: % inh. (percentage inhibition of IL-5 production); for % inh. (percentage inhibition of IL-5 production): 48 hours. On the procedure:
In Vitro Inhibition of IL-5 Production in Human Blood
Human Whole Blood Stimulation
Peripheral blood from healthy male donors was drawn into heparinized syringes (12.5 U heparin/ml). Blood samples were three-fold diluted in RMPI 1640 medium (Life Technologies, Belgium) supplemented with 2 mM L-glutamine, 100 U/ml penicillin and […] streptomycin, and […] fractions were distributed in 24-well multidisc plates. Blood samples were preincubated (60 minutes at 37° C.) in a humidified 6% CO2-atmosphere with 100 ml of drug solvent (final concentration 0.02% dimethylsulfoxide in RPMI 1640) or with 100 ml of an appropriate dose of test compound before being stimulated by the addition of […] of phytohemagglutinin HA17 (Murex, UK) at a final concentration of […]. After 48 hours, cell-free supernatant fluids were collected by centrifugation and stored at −70° C. until tested for the presence of IL-5.
IL-5 measurements were conducted as described in Van Wauwe et al. (1996, Inflamm Res, 45, 357-363) on page 358 using ELISA.
Table 3 lists the percentage inhibition of IL-5 production (column “% inh”) at a test dose of 1×10^−6 M for the compounds of the present invention.
For orientation: ELISA stands for enzyme-linked immunosorbent assay.

As usually defined, the inhibition is the relative decrease from the control value, in per cent. In general, melting point refers to the temperature of the solid-liquid transition. For the compound `CCOC(=O)C1(c2c(Cl)cc(-n3ncc(=O)[nH]c3=O)cc2Cl)CCc2ccccc21` (centres unmarked) [Compound 2], the melting point stood at 88 °C. In the series with IL-5 production, the inhibition at 1 µM stood at 63%.

`Cc1sc(C2(c3c(Cl)cc(-n4ncc(=O)[nH]c4=O)cc3Cl)CCc3ccccc32)nc1-c1ccccc1` (centres unmarked) [Compound 4] displayed a melting point of 237 °C. Moreover, in the series with IL-5 production, the inhibition at 1 µM stood at 89.3%.

Consider `Cc1sc(C2(c3c(Cl)cc(-n4ncc(=O)[nH]c4=O)cc3Cl)CCc3ccccc32)nc1-c1ccccc1` (centres unmarked) [Compound 6], for which the “% inh. (percentage inhibition of IL-5 production)” value with IL-5 production is 91%.

As to `N#CC1(c2c(Cl)cc(-n3ncc(=O)[nH]c3=O)cc2Cl)CCc2ccccc21` (centres unmarked) [Compound 1], in the series on IL-5 production, the inhibition at 1 µM was 70.5%.

`Cc1sc(C2(c3c(Cl)cc(-n4ncc(=O)[nH]c4=O)cc3Cl)CCc3ccccc32)nc1-c1ccccc1` (centres unmarked) [Compound 5] displayed a melting point of 122 °C. Also, the “% inh. (percentage inhibition of IL-5 production)” value in the series on IL-5 production is listed as 88%.
